Data taken from EP0028778B1, “Antibacterial compositions comprising a beta-lactam-type compound and a 3-substituted propenoate” (Merck & Co., Inc., priority 1979, dated 1981).

Tests used:
rabbits [1] = assay: Nephrotoxicity of NFT alone or in combination with DMCO, intravenous, rabbits, 48 hours; type: in vivo, New Zealand white rabbits; details: for numbers of rabbits with renal tubular necrosis/numbers of rabbits tested / Renal Tubular Necrosis (degree) / BUN / Creatinine: i.v., 48 hours, rabbits; for Renal Tubular Necrosis (degree): histology; for BUN: mean; for Creatinine: mean serum
Procedure: The compound N-formimidoyl theinamycin (NFT) and the compound Z-2-(2,2-dimethylcyclopropane carboxamido)-2-ocetenoic acid (DMCO) were tested in rabbits to evaluate nephrootoxicity.
Either NFT alone or in combination with DMCO was administered intravenously to rabbits. After 48 hours blood samples were taken for determination of BUN and creatinine concentrations and the rabbits were killed for histologic examination of kidney sections.
The study was initiated with 28 New Zealand white rabbits which ranged in age from 23 to 27 weeks, and in weight from 2.78 to 3.71 kg for males and 2.81 to 3.85 kg for females. All animals were housed in individual stainless steel cages and maintained in climate-controlled rooms with access to food (Purina Rabbit Chow) and tap water ad libitum.
NFT was administered to six groups of 2 male and 2 female rabbits each at a nominal dose of 180 mg/kg. Five of these groups received DMCO in addition to NFT at nominal doses of 90, 30, 10, 3 or 1 mg/kg. All doses were administered via the marginal ear vein at a dosage volume of 1.89 ml/kg. An additional group of 2 male and 2 female rabbits received 0.9% sterile saline and served as controls.
NFT was dissolved in solutions of sodium bicarbonate (NFT alone group) or sterile solutions of DMCO in sodium bicarbonate at five different concentrations; these solutions were prepared immediately prior to use.
The mean BUN and serum creatinine concentrations and the degrees of renal tubular epithelial necrosis are shown below in Table I: […]

rabbits [2] = assay: as above; type: in vivo, New Zealand white rabbits; details: single large doses, within 48 hours, dose rates comparable to those used with cephaloridine

What does the source list for `C[C@@H](O)[C@H]1C(=O)N2C(C(=O)O)=C(SCCN=CN)C[C@H]12` [NFT, N-formimidoyl thienamycin]?
numbers of rabbits with renal tubular necrosis/numbers of rabbits tested (rabbits [1]; NFT 180 mg/kg alone): 4/4; Renal Tubular Necrosis (degree) (rabbits [1]; NFT 180 mg/kg alone): Marked-Severe; BUN (rabbits [1]; NFT 180 mg/kg alone): 70.0^S mg/100 ml; Creatinine (rabbits [1]; NFT 180 mg/kg alone): 4.2^S mg/100 ml; nephrotoxic potential in the rabbit laboratory model (rabbits [2]): nephrotoxic

How did the “numbers of rabbits with renal tubular necrosis/numbers of rabbits tested” value (rabbits [1]; NFT 180 mg/kg + DMCO 1 mg/kg) turn out when `CCCCC/C=C(\NC(=O)C1CC1(C)C)C(=O)O` (centres unmarked) [DMCO, Z-2-(2,2-dimethylcyclopropanecarboxamido)-2-octenoic acid] was run?
The value was 4/4.

And the “Renal Tubular Necrosis (degree)” value (rabbits [1]; NFT 180 mg/kg + DMCO 1 mg/kg)?
Its value is “Marked-Severe”.

And the BUN (rabbits [1]; NFT 180 mg/kg + DMCO 1 mg/kg)?
The BUN was 64.7^S mg/100 ml.

And the Creatinine (rabbits [1]; NFT 180 mg/kg + DMCO 1 mg/kg)?
Its Creatinine is 4.2^S mg/100 ml.

And the “numbers of rabbits with renal tubular necrosis/numbers of rabbits tested” value (rabbits [1]; NFT 180 mg/kg + DMCO 3 mg/kg)?
The value was 4/4.

What about the “Renal Tubular Necrosis (degree)” value (rabbits [1]; NFT 180 mg/kg + DMCO 3 mg/kg) of the same molecule?
The value was “Marked”.

And the BUN (rabbits [1]; NFT 180 mg/kg + DMCO 3 mg/kg)?
The BUN was 65.8^S mg/100 ml.

What about the Creatinine (rabbits [1]; NFT 180 mg/kg + DMCO 3 mg/kg) of the same molecule?
Its Creatinine is 4.2^S mg/100 ml.

And the “numbers of rabbits with renal tubular necrosis/numbers of rabbits tested” value (rabbits [1]; NFT 180 mg/kg + DMCO 10 mg/kg)?
Its value is 4/4.

And the “Renal Tubular Necrosis (degree)” value (rabbits [1]; NFT 180 mg/kg + DMCO 10 mg/kg)?
The value was “Moderate-Marked”.

What about the BUN (rabbits [1]; NFT 180 mg/kg + DMCO 10 mg/kg) of the same molecule?
Its BUN is 53.1^S mg/100 ml.

And the Creatinine (rabbits [1]; NFT 180 mg/kg + DMCO 10 mg/kg)?
Its Creatinine is 2.9^S mg/100 ml.

What about the “numbers of rabbits with renal tubular necrosis/numbers of rabbits tested” value (rabbits [1]; NFT 180 mg/kg + DMCO 30 mg/kg) of the same molecule?
The value was 4/4.

What about the “Renal Tubular Necrosis (degree)” value (rabbits [1]; NFT 180 mg/kg + DMCO 30 mg/kg) of the same molecule?
The value was “V. Sl.-Moderate”.

And the BUN (rabbits [1]; NFT 180 mg/kg + DMCO 30 mg/kg)?
The BUN was 26.1^NS mg/100 ml.

And the Creatinine (rabbits [1]; NFT 180 mg/kg + DMCO 30 mg/kg)?
Its Creatinine is 1.3^NS mg/100 ml.

And the “numbers of rabbits with renal tubular necrosis/numbers of rabbits tested” value (rabbits [1]; NFT 180 mg/kg + DMCO 90 mg/kg)?
Its value is 0/4.

And the “Renal Tubular Necrosis (degree)” value (rabbits [1]; NFT 180 mg/kg + DMCO 90 mg/kg)?
Its value is “None”.

What about the BUN (rabbits [1]; NFT 180 mg/kg + DMCO 90 mg/kg) of the same molecule?
The BUN was 16.6^NS mg/100 ml.

And the Creatinine (rabbits [1]; NFT 180 mg/kg + DMCO 90 mg/kg)?
Its Creatinine is 1.2^NS mg/100 ml.

And the “ability to prevent nephrotoxicity” value (rabbits [1]; co-administration with the antibiotic, general statement)?
The value was “has been shown to possess this property”.
